Data from the NIST ThermoML archive (doi:10.1016/j.jct.2011.08.016).
± gives the expanded uncertainty stated by the source.

Assay: xn = mol fraction of the nth substance listed
Conditions: Liquid, Vibrating tube method

CCCCCCCCCC [decane] + CCCCCCCC
Conditions | mass density [kg/m3]
343.11 K, 1000 kPa, x2 = 0.0616 | 691.23 ± 0.41
343.11 K, 2000 kPa, x2 = 0.0616 | 692.25 ± 0.42
343.11 K, 3000 kPa, x2 = 0.0616 | 693.27 ± 0.42
343.11 K, 4000 kPa, x2 = 0.0616 | 694.28 ± 0.43
343.11 K, 5000 kPa, x2 = 0.0616 | 695.27 ± 0.43
343.11 K, 6000 kPa, x2 = 0.0616 | 696.28 ± 0.44
343.11 K, 7000 kPa, x2 = 0.0616 | 697.25 ± 0.44
343.11 K, 8000 kPa, x2 = 0.0616 | 698.24 ± 0.45
343.11 K, 9000 kPa, x2 = 0.0616 | 699.21 ± 0.45
343.11 K, 10000 kPa, x2 = 0.0616 | 700.15 ± 0.46
343.11 K, 10990 kPa, x2 = 0.0616 | 701.09 ± 0.46
343.11 K, 12000 kPa, x2 = 0.0616 | 702.04 ± 0.47
343.11 K, 13000 kPa, x2 = 0.0616 | 702.94 ± 0.47
343.11 K, 14000 kPa, x2 = 0.0616 | 703.83 ± 0.48
343.11 K, 15000 kPa, x2 = 0.0616 | 704.71 ± 0.49
343.11 K, 16000 kPa, x2 = 0.0616 | 705.59 ± 0.49
343.11 K, 17000 kPa, x2 = 0.0616 | 706.44 ± 0.5
343.11 K, 18000 kPa, x2 = 0.0616 | 707.29 ± 0.5
343.11 K, 19000 kPa, x2 = 0.0616 | 708.13 ± 0.51
343.11 K, 20000 kPa, x2 = 0.0616 | 708.97 ± 0.52
343.11 K, 21000 kPa, x2 = 0.0616 | 709.77 ± 0.52
343.11 K, 22000 kPa, x2 = 0.0616 | 710.54 ± 0.53
343.11 K, 23000 kPa, x2 = 0.0616 | 711.34 ± 0.53
343.11 K, 24000 kPa, x2 = 0.0616 | 712.11 ± 0.54
343.11 K, 25000 kPa, x2 = 0.0616 | 712.86 ± 0.55
343.12 K, 1000 kPa, x2 = 0.2801 | 686 ± 0.42
343.12 K, 1000 kPa, x2 = 0.5314 | 678.98 ± 0.42
343.12 K, 1000 kPa, x2 = 0.7736 | 671.23 ± 0.42
343.12 K, 2000 kPa, x2 = 0.2801 | 686.96 ± 0.42
343.12 K, 2000 kPa, x2 = 0.5314 | 680.05 ± 0.42
343.12 K, 2000 kPa, x2 = 0.7736 | 672.36 ± 0.43
343.12 K, 3000 kPa, x2 = 0.2801 | 688 ± 0.42
343.12 K, 3000 kPa, x2 = 0.5314 | 681.13 ± 0.43
343.12 K, 3000 kPa, x2 = 0.7736 | 673.44 ± 0.43
343.12 K, 4000 kPa, x2 = 0.2801 | 689.01 ± 0.43
343.12 K, 4000 kPa, x2 = 0.5314 | 682.2 ± 0.43
343.12 K, 4000 kPa, x2 = 0.7736 | 674.54 ± 0.44
343.12 K, 5000 kPa, x2 = 0.2801 | 690.04 ± 0.43
343.12 K, 5000 kPa, x2 = 0.5314 | 683.26 ± 0.44
343.12 K, 5000 kPa, x2 = 0.7736 | 675.64 ± 0.44
343.12 K, 6000 kPa, x2 = 0.2801 | 691.09 ± 0.44
343.12 K, 6000 kPa, x2 = 0.5314 | 684.32 ± 0.44
343.12 K, 6000 kPa, x2 = 0.7736 | 676.76 ± 0.45
343.12 K, 7000 kPa, x2 = 0.2801 | 692.03 ± 0.44
343.12 K, 7000 kPa, x2 = 0.5314 | 685.36 ± 0.45
343.12 K, 7000 kPa, x2 = 0.7736 | 677.83 ± 0.45
343.12 K, 8000 kPa, x2 = 0.2801 | 693.02 ± 0.45
343.12 K, 8000 kPa, x2 = 0.5314 | 686.38 ± 0.45
343.12 K, 8000 kPa, x2 = 0.7736 | 678.88 ± 0.46
343.12 K, 9000 kPa, x2 = 0.2801 | 694 ± 0.45
343.12 K, 9000 kPa, x2 = 0.5314 | 687.39 ± 0.46
343.12 K, 9000 kPa, x2 = 0.7736 | 679.92 ± 0.46
343.12 K, 10000 kPa, x2 = 0.2801 | 694.95 ± 0.46
343.12 K, 10000 kPa, x2 = 0.5314 | 688.38 ± 0.46
343.12 K, 10000 kPa, x2 = 0.7736 | 680.93 ± 0.47
343.12 K, 10990 kPa, x2 = 0.2801 | 695.95 ± 0.47
343.12 K, 10990 kPa, x2 = 0.5314 | 689.37 ± 0.47
343.12 K, 10990 kPa, x2 = 0.7736 | 681.98 ± 0.48
343.12 K, 12000 kPa, x2 = 0.2801 | 696.9 ± 0.47
343.12 K, 12000 kPa, x2 = 0.5314 | 690.34 ± 0.48
343.12 K, 12000 kPa, x2 = 0.7736 | 682.98 ± 0.48
343.12 K, 13000 kPa, x2 = 0.2801 | 697.84 ± 0.48
343.12 K, 13000 kPa, x2 = 0.5314 | 691.29 ± 0.48
343.12 K, 13000 kPa, x2 = 0.7736 | 683.94 ± 0.49
343.12 K, 14000 kPa, x2 = 0.2801 | 698.78 ± 0.48
343.12 K, 14000 kPa, x2 = 0.5314 | 692.24 ± 0.49
343.12 K, 14000 kPa, x2 = 0.7736 | 684.91 ± 0.49
343.12 K, 15000 kPa, x2 = 0.2801 | 699.72 ± 0.49
343.12 K, 15000 kPa, x2 = 0.5314 | 693.17 ± 0.49
343.12 K, 15000 kPa, x2 = 0.7736 | 685.89 ± 0.5
343.12 K, 16000 kPa, x2 = 0.2801 | 700.6 ± 0.5
343.12 K, 16000 kPa, x2 = 0.5314 | 694.09 ± 0.5
343.12 K, 16000 kPa, x2 = 0.7736 | 686.84 ± 0.51
343.12 K, 17000 kPa, x2 = 0.2801 | 701.51 ± 0.5
343.12 K, 17000 kPa, x2 = 0.5314 | 695 ± 0.51
343.12 K, 17000 kPa, x2 = 0.7736 | 687.8 ± 0.51
343.12 K, 18000 kPa, x2 = 0.2801 | 702.35 ± 0.51
343.12 K, 18000 kPa, x2 = 0.5314 | 695.89 ± 0.51
343.12 K, 18000 kPa, x2 = 0.7736 | 688.72 ± 0.52
343.12 K, 19000 kPa, x2 = 0.2801 | 703.17 ± 0.51
343.12 K, 19000 kPa, x2 = 0.5314 | 696.76 ± 0.52
343.12 K, 19000 kPa, x2 = 0.7736 | 689.61 ± 0.53
343.12 K, 20000 kPa, x2 = 0.2801 | 704.02 ± 0.52
343.12 K, 20000 kPa, x2 = 0.5314 | 697.62 ± 0.53
343.12 K, 20000 kPa, x2 = 0.7736 | 690.48 ± 0.54
343.12 K, 21000 kPa, x2 = 0.2801 | 704.83 ± 0.53
343.12 K, 21000 kPa, x2 = 0.5314 | 698.47 ± 0.53
343.12 K, 21000 kPa, x2 = 0.7736 | 691.35 ± 0.54
343.12 K, 22000 kPa, x2 = 0.2801 | 705.63 ± 0.53
343.12 K, 22000 kPa, x2 = 0.5314 | 699.29 ± 0.54
343.12 K, 22000 kPa, x2 = 0.7736 | 692.2 ± 0.55
343.12 K, 23000 kPa, x2 = 0.2801 | 706.41 ± 0.54
343.12 K, 23000 kPa, x2 = 0.5314 | 700.11 ± 0.55
